What all share (assay): NCI anticancer screen, dose series, 48 h
For assay [1], the system named is ACHN renal.
The test system of assay [2] is CAKI-1 renal.
Assay [3] deals with HCT-116 colon.
Assay [4] deals with M14 melanoma.
The subject of assay [5] is MDA-MB-435.
Assay [6] concerns NCI-H460 lung.
Assay [7] deals with OVCAR-5 ovarian.
In assay [8] the test system is SF-268 CNS.
Assay [9] deals with SNB-75 CNS.
Assay [10] relates to TK-10 renal.

Several values for one entry are separate records, joined by “and”; a condition that tells them apart may be missing. Equal entries are not always repeated.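 Step 1: Grow cells in 96-well plates. Step 2: Expose to compound for 48 hours at 5 concentrations. Step 3: Interpolate endpoints linearly; if unreached, use highest concentration. GI50 marks 50% less growth. TGI is the concentration that stops growth completely.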

Take `COC(=O)c1ccc(=O)c2nc3/c(=C/O)c(O)cc(=O)c3[nH]c12`: the GI50 is 0.478 µM in assay [1]; 0.581 µM in [2]; 0.321 µM in assay [3]; 1.07 µM in assay [4]; 0.559 µM in [5]; 0.357 µM in assay [6]. The GI50 was 3.38 µM in [7], 1.2 µM in [8], 0.482 µM in [9] and 1.3 µM in assay [10]. Further, the TGI is 16.6 µM and 14.5 µM in assay [1]; 12.8 µM and 12.6 µM in [2]; 14.6 µM and 11.8 µM in assay [3]; 24.9 µM and 24.5 µM in assay [4]; 23.7 µM and 13.2 µM in [5]; 23.8 µM and 19.7 µM in assay [6]. Also, the TGI was 13 µM and 22.4 µM in [7]; 24.9 µM and 18.6 µM in assay [8]; 16.4 µM and 13.6 µM in assay [9]; 21.1 µM and 17.5 µM in assay [10].

As for `C=C1C(=O)O[C@H]2[C@H]1CC/C(COC(=O)C(=O)c1c[nH]c3ccc(OC)cc13)=C\CC[C@@]1(C)O[C@@H]21`, the GI50 in assay [1] is 4.21 µM; in assay [2], 9.23 µM; in assay [3] it was 4.48 µM; in assay [4], 5.18 µM; in assay [5], 5.52 µM; in assay [6], 10.2 µM. Also, the GI50 was 7.11 µM in assay [7], 6.75 µM in assay [8], 6.13 µM in assay [9] and 6.41 µM in assay [10]. In addition, the TGI is 9.2 µM in assay [1]; 23.3 µM in assay [2]; 8.73 µM in [3]; 10.4 µM in assay [4]; 10.8 µM in assay [5]; 24.8 µM in assay [6]. The TGI came to 14.1 µM in [7], 13 µM in assay [8], 10.4 µM in assay [9] and 14.5 µM in assay [10].

In the case of `O=C1C=CC(=O)C1(Br)Br`, the TGI in [1] turned out to be 17.3 µM; in assay [2], 11.4 µM; in [3], 20.9 µM; in assay [4], 38.1 µM; in assay [5], 29.8 µM; in [6], 41.6 µM. Further, the TGI in assay [7] turned out to be 25.3 µM; in assay [8] it was 37.9 µM; in assay [9] it was 24.5 µM; in [10], 10.4 µM.

`COc1cc2c3c(n(CCCN)c(=O)c2cc1OC)-c1ccc(F)cc1C3=O`: the GI50 in [1] is 0.861 µM; in [2] it was 1.69 µM; in assay [3], 1.19 µM; in assay [4] it was 1.44 µM; in [5], 8.16 µM; in [6], 0.369 µM. For the same molecule, the GI50 in assay [7] was 10.4 µM; in assay [8], 3.08 µM; in assay [9], 11.1 µM; in assay [10], 14.7 µM. Further, the TGI in assay [1] was found to be 6.14 µM; in assay [2], 15.6 µM; in [3] it was 2.46 µM; in assay [4] it was 11.4 µM; in assay [5], 25.5 µM; in assay [6], 1.78 µM. In addition, the TGI in [7] stood at 22.7 µM; in assay [8] it was 20.3 µM; in [9] it was 27 µM; in assay [10], 30.4 µM.

Regarding `O=C(Oc1ccc([N+](=O)[O-])cc1)N1CCN(Cc2cccc(Oc3ccccc3)c2)CC1`, the GI50 in assay [1] was greater than 100 µM; in assay [2], greater than 73.6 µM; in assay [3], 44.9 µM; in assay [4] it was greater than 100 µM; in assay [5], greater than 100 µM; in [6], 99.3 µM. The GI50 in assay [7] is greater than 100 µM; in assay [8] it was greater than 100 µM; in assay [9], greater than 100 µM; in assay [10], greater than 75.9 µM. For the same molecule, the TGI in [1], in assay [2], in assay [3], in assay [4], in assay [5] and in assay [6] was greater than 100 µM in each case. In addition, the TGI in assay [7], in assay [8], in assay [9] and in assay [10] was greater than 100 µM throughout.

As for `COc1cc(NN=C(c2ccc(O)cc2)c2ccc(O)cc2)c([N+](=O)[O-])cc1[N+](=O)[O-]`, the GI50 in [1] is 5.23 µM; in assay [2] it was 13.8 µM; in [3], 9.33 µM; in assay [4] it was 11.4 µM; in assay [5] it was 10.4 µM; in [6], 3.76 µM. The GI50 was 18.8 µM in assay [7], 6.64 µM in assay [8], 14.7 µM in assay [9] and 4.69 µM in assay [10]. Further, the TGI in assay [1] is 20.3 µM; in assay [2], 26.7 µM; in [3] it was 21.8 µM; in assay [4] it was 24.7 µM; in assay [5], 22.6 µM; in assay [6], 21.2 µM. Besides, the TGI came to 40.1 µM in assay [7], 25.5 µM in assay [8], 29.6 µM in assay [9] and 19.9 µM in assay [10].

Turning to `CCC(=O)OC1CCn2c1nc1c2C(=O)C(C)=C(N2CC2)C1=O` (stereo not drawn), the GI50 in [1] was 0.0195 µM; in assay [2], 0.233 µM; in assay [3], 0.0229 µM; in assay [4], 0.0185 µM; in assay [6], 0.0141 µM; in assay [7], 0.0743 µM. Further, the GI50 in assay [8] is 0.0309 µM; in assay [9], 0.0223 µM; in assay [10] it was 0.496 µM. Besides, the TGI is 0.0491 µM and 0.411 µM in assay [1]; 1.01 µM and 0.511 µM in [2]; 0.779 µM and 0.409 µM in [3]; 0.0436 µM and 0.141 µM in assay [4]; 0.0922 µM in [5]; 0.0452 µM and 0.124 µM in assay [6]. Besides, the TGI in [7] is 0.589 µM and 0.229 µM; in assay [8], 1.22 µM and 0.254 µM; in [9] it was 0.0957 µM and 0.0544 µM.

In the case of `O=C(O)CCC1COc2ccccc2O1` (stereo not drawn), the TGI in [1], in [2], in assay [3], in [4], in assay [5] and in [6] was greater than 10 µM throughout. Further, the TGI in assay [7], in assay [8], in assay [9] and in assay [10] was greater than 10 µM throughout.

Turning to `Nc1nc2c(c3ncccc13)C(c1cccc(Cl)c1)Cc1ncccc1-2` (stereo not drawn), the GI50 in assay [1] is 5.13 µM; in [2] it was 3.04 µM; in [3], 1.36 µM; in assay [4], 1.23 µM; in [5], 0.29 µM; in assay [6] it was 3.03 µM. The GI50 was 6.42 µM in assay [7], 3.79 µM in assay [8], 1.12 µM in assay [9] and 8.11 µM in assay [10]. Also, the TGI in assay [1] was found to be 67.1 µM; in assay [2], 51.8 µM; in [3], 14.5 µM; in assay [4] it was 12.7 µM; in [5] it was 1.17 µM; in assay [6], 22.6 µM. In addition, the TGI was greater than 100 µM in assay [7], 32.1 µM in assay [8], 8.17 µM in assay [9] and 65.7 µM in assay [10].

In the case of `O=S(=O)(NC(=S)Nc1ccccc1)c1ccc(N2N=C3c4ccccc4CC3C2c2cccs2)cc1` (stereo not drawn), the GI50 is 26.4 µM in [1]; 18.5 µM in [2]; 15.1 µM in [3]; 22.7 µM in [4]; 19.4 µM in assay [5]; 24.6 µM in assay [6]. Also, the GI50 is 17.9 µM in [7], 30.7 µM in assay [8], 71.9 µM in [9] and 12.2 µM in assay [10]. In addition, the TGI in assay [1] was 67.7 µM; in assay [2] it was 43.8 µM; in [3], 34.8 µM; in assay [4], 46.3 µM; in assay [5], 45.6 µM; in assay [6], greater than 100 µM. Further, the TGI in [7] is 41.1 µM; in [8], greater than 100 µM; in [9], greater than 100 µM; in assay [10] it was 39.7 µM.

Take `O=c1cccc(C#Cc2ccccc2)o1`: the GI50 in assay [1] was 7.7 µM; in assay [2], 5.05 µM; in [3], 2.8 µM; in assay [4] it was 5.9 µM; in assay [5] it was 6.89 µM; in assay [6] it was 3.91 µM. The GI50 in assay [7] is 6.35 µM; in assay [8], 5.34 µM; in assay [9] it was 42.3 µM; in assay [10], 6.06 µM. Further, the TGI in [1] was 21.5 µM; in assay [2], 15.3 µM; in [3], 26.2 µM; in [4], greater than 22.8 µM; in assay [5], 24.9 µM; in assay [6], greater than 100 µM. The TGI in assay [7] is 16.1 µM; in assay [8], greater than 96.7 µM; in [9], greater than 100 µM; in assay [10], 22.7 µM.

Turning to `NCCNCC(O)CO` (stereo not drawn), the TGI in assay [1], in [2], in assay [3], in assay [4], in assay [5] and in [6] was greater than 100 µM in each case. Further, the TGI in [7], in assay [8], in assay [9] and in assay [10] was greater than 100 µM each time.

On to `N#CC1C(=N)Cc2ccccc2-c2ccccc21` (stereo not drawn), for which the GI50 was 12.8 µM in assay [1]; 3.21 µM in [2]; 3.25 µM in assay [3]; 2.74 µM in [4]; 1.2 µM in assay [5]; 3.92 µM in assay [6]. For the same molecule, the GI50 in assay [7] was 9.04 µM; in [8], 7.7 µM; in assay [9] it was 2.76 µM; in assay [10], 20.2 µM. For the same molecule, the TGI in assay [1] is 82.5 µM; in assay [2], 24.2 µM; in assay [3], 15.3 µM; in assay [4], 10.3 µM; in assay [5] it was 3.57 µM; in assay [6] it was 18.3 µM. The TGI was greater than 100 µM in assay [7], 51.7 µM in [8], 9.81 µM in assay [9] and 63.6 µM in [10].

With `Nc1ccn([C@H]2C[C@@H](O)[C@@H](CO)S2)c(=O)n1`, the GI50 was 8.65 µM in [1]; 8.4 µM in assay [2]; 14.1 µM in [3]; greater than 100 µM in assay [4]; 16.9 µM in assay [5]; 34.9 µM in assay [6]. The GI50 was greater than 100 µM in [7], greater than 100 µM in assay [8], greater than 44 µM in assay [9] and greater than 100 µM in assay [10]. The TGI in assay [1], in assay [2], in assay [3], in [4], in assay [5] and in assay [6] was greater than 100 µM in each case. The TGI in assay [7], in assay [8], in assay [9] and in [10] was greater than 100 µM throughout.

On to `NC1=NC(c2ccccc2)N=C(Nc2ccccc2)N1` (stereo not drawn), for which the GI50 in assay [1] is greater than 100 µM; in assay [2] it was greater than 100 µM; in [3], greater than 100 µM; in assay [4], greater than 100 µM; in assay [5], 34.5 µM; in assay [6] it was greater than 100 µM. For the same molecule, the GI50 in assay [7] is greater than 100 µM; in assay [8], 55.1 µM; in [9], 34.8 µM; in assay [10] it was greater than 100 µM. For the same molecule, the TGI in assay [1], in assay [2], in assay [3], in [4], in assay [5] and in [6] was greater than 100 µM each time. The TGI in [7], in assay [8], in assay [9] and in assay [10] was greater than 100 µM throughout.

For the molecule `COc1ncc(-c2nc3c(n2C(C)C)[C@H](c2ccc(Cl)cc2)N(c2cc(Cl)cn(C)c2=O)C3=O)c(OC)n1`, the GI50 in [1] is 15.2 µM; in [2], 26.3 µM; in assay [3] it was 22 µM; in assay [4], 36.8 µM; in assay [5], 35.3 µM; in assay [6], 22.8 µM. Further, the GI50 in assay [7] is greater than 100 µM; in assay [8] it was 71.5 µM; in assay [9], 30 µM; in assay [10], 36.8 µM. Further, the TGI in assay [1], in assay [2], in assay [3], in assay [4], in [5] and in assay [6] was greater than 100 µM throughout. Moreover, the TGI in [7], in assay [8], in assay [9] and in [10] was greater than 100 µM throughout.

Values taken from PubChem BioAssay (NCI).
